Test results taken from patent US10004701B2, “Methods and compositions for treating infection” (UNIVERSITY OF ROCHESTER, priority 2012, dated 2018).
≈ marks a conversion by molar mass, not a printed value. Where a name gives a salt, the structure may show the parent alone. Read-outs that look alike come from different tables or passages of the source.

How the values were obtained:
S. aureus = assay: Minimum Inhibitory Concentration (MIC) testing, terfenadine study; format: cell-based; conditions: Staphylococcus aureus, 16 h
S. aureus DNA gyrase = target: T1, S. aureus DNA gyrase (Staphylococcus aureus, UniProt P0A0K8+P20831); assay: S. aureus DNA gyrase supercoiling assay (TopoGEN); format: biochemical
T1 construct: purchased TopoGEN
T1 sequence (P0A0K8 whole entry): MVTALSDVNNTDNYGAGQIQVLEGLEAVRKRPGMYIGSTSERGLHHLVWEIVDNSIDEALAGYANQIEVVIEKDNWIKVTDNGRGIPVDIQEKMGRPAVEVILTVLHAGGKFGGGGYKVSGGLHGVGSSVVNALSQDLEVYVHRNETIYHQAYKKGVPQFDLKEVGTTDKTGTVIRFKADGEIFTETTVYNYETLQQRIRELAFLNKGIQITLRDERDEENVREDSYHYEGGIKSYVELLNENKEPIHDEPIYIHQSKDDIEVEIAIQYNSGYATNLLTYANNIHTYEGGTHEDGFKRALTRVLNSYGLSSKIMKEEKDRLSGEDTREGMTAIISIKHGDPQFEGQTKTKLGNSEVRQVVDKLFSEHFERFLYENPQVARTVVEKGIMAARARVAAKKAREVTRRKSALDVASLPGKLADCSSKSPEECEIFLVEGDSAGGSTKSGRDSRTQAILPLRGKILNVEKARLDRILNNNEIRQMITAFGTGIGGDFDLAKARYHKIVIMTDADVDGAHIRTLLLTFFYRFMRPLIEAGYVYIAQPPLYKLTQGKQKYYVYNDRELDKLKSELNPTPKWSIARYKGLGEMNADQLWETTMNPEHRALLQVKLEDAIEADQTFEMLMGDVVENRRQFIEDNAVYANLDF
T1 sequence (P20831 whole entry): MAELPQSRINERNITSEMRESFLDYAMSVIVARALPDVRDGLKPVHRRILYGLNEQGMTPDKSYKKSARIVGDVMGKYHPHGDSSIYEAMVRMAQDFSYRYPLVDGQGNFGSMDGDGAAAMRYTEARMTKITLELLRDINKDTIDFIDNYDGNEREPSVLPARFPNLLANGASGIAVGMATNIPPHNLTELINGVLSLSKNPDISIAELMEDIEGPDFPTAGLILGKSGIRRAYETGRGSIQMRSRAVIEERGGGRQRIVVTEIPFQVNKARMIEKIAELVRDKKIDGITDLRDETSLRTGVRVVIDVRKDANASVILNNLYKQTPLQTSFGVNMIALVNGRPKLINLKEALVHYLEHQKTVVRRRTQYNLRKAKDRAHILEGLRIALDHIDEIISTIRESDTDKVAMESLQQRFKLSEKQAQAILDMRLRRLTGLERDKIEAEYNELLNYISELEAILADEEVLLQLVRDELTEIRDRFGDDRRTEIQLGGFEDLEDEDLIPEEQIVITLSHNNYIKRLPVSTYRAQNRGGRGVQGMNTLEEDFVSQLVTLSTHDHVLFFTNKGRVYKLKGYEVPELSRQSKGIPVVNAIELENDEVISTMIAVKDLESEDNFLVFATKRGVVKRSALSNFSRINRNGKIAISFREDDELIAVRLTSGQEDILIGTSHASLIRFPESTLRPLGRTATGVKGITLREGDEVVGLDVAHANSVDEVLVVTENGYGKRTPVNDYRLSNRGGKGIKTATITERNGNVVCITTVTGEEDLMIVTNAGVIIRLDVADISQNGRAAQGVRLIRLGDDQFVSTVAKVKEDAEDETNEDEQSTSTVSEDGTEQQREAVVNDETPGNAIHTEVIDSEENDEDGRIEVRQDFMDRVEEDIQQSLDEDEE
Experimental: Reactions were incubated at 37° C. for 30 min and then stopped by the addition of 10% SDS, filtered through 0.025 μm Millipore membrane filters in a 10 mM Tris-HCl buffer (pH 8), and electrophoresed in a 1% agarose TAE gel. Gels were stained with 0.5 μg/ml ethidium bromide and images were analyzed using densitometry (Image J, NIH).

K. pneumoniae = assay: AK assay 384-well format, Prestwick library screening; format: cell-based, Klebsiella pneumoniae; conditions: 50 μM final drug concentration
E. coli = assay: as above; format: cell-based, Escherichia coli; conditions: 50 μM final drug concentration
E. cloacae = assay: as above; format: cell-based, Enterobacter cloacae; conditions: 50 μM final drug concentration
P. aeruginosa = assay: as above; format: cell-based, Pseudomonas aeruginosa; conditions: 50 μM final drug concentration
[1] = test system: A. baumannii strain 98-37-09; assay: as above; format: cell-based, Acinetobacter baumannii; conditions: 50 μM final drug concentration
[2] = test system: S. aureus strain USA300-0114; assay: as above; format: cell-based, Staphylococcus aureus; conditions: 50 μM final drug concentration
E. faecium = assay: as above; format: cell-based, Enterococcus faecium; conditions: 50 μM final drug concentration
[3] = S. aureus, MHB, strain not given, read-out: MIC
[4] = planktonic, cutoff for positive 3-fold increase

Compound | MIC (S. aureus) [µg/mL] | IC50 (S. aureus DNA gyrase) [µM] | also measured
CC(C)(C)c1ccc(CCN2CCC(C(O)(c3ccccc3)c3ccccc3)CC2)cn1 [Compound 43, (1-(2-(6-(Tert-butyl)pyridin-3-yl)ethyl)piperidin-4-yl)diphenylmethanol] | 64 (≈ 149 µM) | > 777 | 
COc1ccc(C(O)CCCN2CCC(C(O)(c3ccccc3)c3ccccc3)CC2)cc1 (stereo not drawn) [Compound 7, 4-(4-(hydroxydiphenylmethyl)piperidin-1-yl)-1-(4-methoxyphenyl)butan-1-ol] | 256 (≈ 575 µM) | > 1120 | 
OC(CCCN1CCC(C(O)(c2ccccc2)c2ccccc2)CC1)c1ccc(Cl)cc1 (stereo not drawn) [Compound 4, 1-(4-chlorophenyl)-4-(4-(hydroxydiphenylmethyl)piperidin-1-yl)butan-1-ol] | 64 (≈ 142 µM) | 296 | 
Cc1ccc(C(O)CCCN2CCC(C(O)(c3ccccc3)c3ccccc3)CC2)cc1 (stereo not drawn) [Compound 14, 4-(4-(hydroxydiphenylmethyl)piperidin-1-yl)-1-(p-tolyl)butan-1-ol] | 128 (≈ 298 µM) | > 1160 | 
CC(C)(C)c1ccc(C(=O)CCN2CCC(C(O)(c3ccccc3)c3ccccc3)CC2)cc1 [Compound 21, 1-(4-(tert-butyl)phenyl)-3-(4-(hydroxydiphenylmethyl)piperidin-1-yl)propan-1-one] | 32 (≈ 70.2 µM) | 198 | 
OC(c1ccccc1)(c1ccccc1)C1CCN(CCc2ccc(F)cc2)CC1 [Compound 38, (1-(4-Fluorophenethyl)piperidin-4-yl)diphenylmethanol] | 128 (≈ 329 µM) | > 855 | 
OC(c1ccccc1)(c1ccccc1)C1CCN(CCc2ccc(Br)cc2)CC1 [Compound 30, (1-(4-bromophenethyl)piperidin-4-yl)diphenylmethanol] | 16 (≈ 35.5 µM) | 548 | 
CC(C)(C)c1ccc(C(O)CCCN2CCC(C(O)c3ccccc3)CC2)cc1 (mixture of isomers) [Compound 31, 1-(4-(tert-butyl)phenyl)-4-(4-(hydroxy(phenyl)methyl)piperidin-1-yl)butan-1-ol] | 128 |  | 
CC(C)(C)c1ccc(C(=O)CN2CCC(C(O)(c3ccccc3)c3ccccc3)CC2)cc1 [Compound 20, 1-(4-(tert-butyl)phenyl)-2-(4-(hydroxydiphenylmethyl)piperidin-1-yl)ethanone] | > 256 |  | 
CC(C)(C)c1ccc(C(=O)CCCN2CCC(C(O)(c3ccccc3)c3ccccc3)CC2)cc1 [Compound 11, 1-(4-(tert-butyl)phenyl)-4-(4-(hydroxydiphenylmethyl)piperidin-1-yl)butan-1-one] | 8 (≈ 17 µM) |  | 
OC(c1ccccc1)(c1ccccc1)C1CCN(CCc2ccc(-c3cccnc3)cc2)CC1 [Compound 35, Diphenyl(1-(4-(pyridin-3-yl)phenethyl)piperidin-4-yl)methanol] | 32 (≈ 71.3 µM) | 557 | 
OC(CCCN1CCC(C(O)(c2ccccc2)c2ccccc2)CC1)c1ccc(F)cc1 (stereo not drawn) [Compound 8, 1-(4-fluorophenyl)-4-(4-(hydroxydiphenylmethyl)piperidin-1-yl)butan-1-ol] | 128 (≈ 295 µM) | > 1150 | 
CC(C)(C)c1ccc(OCCCN2CCC(C(O)(c3ccccc3)c3ccccc3)CC2)cc1 [Compound 42, (1-(3-(4-(Tert-butyl)phenoxy)propyl)piperidin-4-yl)diphenylmethanol] |  | 219 | 
CC(C)(C)c1ccc(CCCN2CCC(C(O)(c3ccccc3)c3ccccc3)CC2)cc1 [Compound 22, (1-(3-(4-(Tert-butyl)phenyl)propyl)piperidin-4-yl)diphenylmethanol] | 8 (≈ 18.1 µM) | 211 | 
O=C(O)c1ccc(C(O)CCCN2CCC(C(O)(c3ccccc3)c3ccccc3)CC2)cc1 (stereo not drawn) [Compound 19, 4-(1-hydroxy-4-(4-(hydroxydiphenylmethyl)piperidin-1-yl)butyl)benzoic acid] | > 256 | > 1090 | 
OC(c1ccccc1)(c1ccccc1)C1CCN(CCc2ccc(Cl)cc2)CC1 [Compound 44, (1-(4-Chlorophenethyl)piperidin-4-yl)diphenylmethanol] | 32 (≈ 78.8 µM) | 640 | 

Compound | MIC (S. aureus) [µg/mL] | IC50 (S. aureus DNA gyrase) [µM] | also measured
COC(=O)c1ccc(C(O)CCCN2CCC(C(O)(c3ccccc3)c3ccccc3)CC2)cc1 (stereo not drawn) [Compound 18, Methyl 4-(1-hydroxy-4-(4-(hydroxydiphenylmethyl)piperidin-1-yl)butyl)benzoate] | 256 (≈ 541 µM) | 929 | 
OC(CCCN1CCC(C(O)(c2ccccc2)c2ccccc2)CC1)c1ccccc1 (stereo not drawn) [Compound 6, 4-(4-(hydroxydiphenylmethyl)piperidin-1-yl)-1-phenylbutan-1-ol] | 256 (≈ 616 µM) | > 1200 | 
CN(C)c1ccc(CCN2CCC(C(O)(c3ccccc3)c3ccccc3)CC2)cc1 [Compound 36, (1-(4-(Dimethylamino)phenethyl)piperidin-4-yl)diphenylmethanol] | 256 (≈ 617 µM) | > 803 | 
CC(C)(C)c1ccc(CN2CCC(C(O)(c3ccccc3)c3ccccc3)CC2)cc1 [Compound 26, (1-(4-(tert-butyl)benzyl)piperidin-4-yl)diphenylmethanol] |  | 218 | 
CC(C)(C)c1ccc(NCCCN2CCC(C(O)(c3ccccc3)c3ccccc3)CC2)cc1 [Compound 41, (1-(3-((4-(Tert-butyl)phenyl)amino)propyl)piperidin-4-yl)diphenylmethanol] | 8 (≈ 17.5 µM) | 423 | 
OC(CCCN1CCC(C(O)(c2ccccc2)c2ccccc2)CC1)c1ccc(-c2ccccc2)cc1 (stereo not drawn) [Compound 25, 1-([1,1′-biphenyl]-4-yl)-4-(4-(hydroxydiphenylmethyl)piperidin-1-yl)butan-1-ol] | 8 (≈ 16.3 µM) | 27.1 | 
OC(c1ccccc1)(c1ccccc1)C1CCN(CCc2ccc(-c3ccncc3)cc2)CC1 [Compound 33, Diphenyl(1-(4-(pyridin-4-yl)phenethyl)piperidin-4-yl)methanol] | 32 (≈ 71.3 µM) | 208 | 
Nc1ccc(CCN2CCC(C(O)(c3ccccc3)c3ccccc3)CC2)cc1 [Compound 34, (1-(4-aminophenethyl)piperidin-4-yl)diphenylmethanol] | 256 (≈ 662 µM) | 241 | 
CC(C)(C)c1ccc(C(O)CCCN2CCC(Cc3ccccc3)CC2)cc1 (stereo not drawn) [Compound 40, 4-(4-Benzylpiperidin-1-yl)-1-(4-(tert-butyl)phenyl)butan-1-ol] | 64 (≈ 169 µM) | > 877 | 
CC(C)(C)c1ccc(C(O)CN2CCC(C(O)(c3ccccc3)c3ccccc3)CC2)cc1 (stereo not drawn) [Compound 17, 1-(4-(tert-butyl)phenyl)-2-(4-(hydroxydiphenylmethyl)piperidin-1-yl)ethanol] |  |  | MIC (S. aureus; [3]): 16 µg/mL (≈ 36.1 µM)
OC(CCCN1CCC(C(O)(c2ccccc2)c2ccccc2)CC1)c1ccc(Br)cc1 (stereo not drawn) [Compound 9, 1-(4-bromophenyl)-4-(4-(hydroxydiphenylmethyl)piperidin-1-yl)butan-1-ol] | 32 (≈ 64.7 µM) | > 1010 | 
CC(C)(C)c1ccc(CCCCN2CCC(C(O)(c3ccccc3)c3ccccc3)CC2)cc1 [Compound 10, (1-(4-(4-(tert-butyl)phenyl)butyl)piperidin-4-yl)diphenylmethanol] | 8 (≈ 17.6 µM) | 205 | 
CC(C)c1ccc(C(O)CCCN2CCC(C(O)(c3ccccc3)c3ccccc3)CC2)cc1 (stereo not drawn) [Compound 1, 4-(4-(hydroxydiphenylmethyl)piperidin-1-yl)-1-(4-isopropylphenyl)butan-1-ol] |  |  | MIC (S. aureus; [3]): 16 µg/mL (≈ 35 µM)
CC(C)(C)c1ccc(C(N)CCCN2CCC(C(O)(c3ccccc3)c3ccccc3)CC2)cc1 (stereo not drawn) [Compound 24, (1-(4-amino-4-(4-(tert-butyl)phenyl)butyl)piperidin-4-yl)diphenylmethanol] | 16 (≈ 34 µM) |  | 
CCOC(=O)[C@@](C)(N)Cc1ccc(O)c(O)c1 [Methyldopate hydrochloride] |  |  | fold induction at 50 µM (K. pneumoniae; Klebsiella pneumoniae, 3 h, planktonic K. pneumoniae, positive cutoff 3-fold increase, read-out: AK-based Prestwick library screening result, K. pneumoniae (fold increase in extracellular AK activity)): 1.2; fold induction at 50 µM (E. coli; Escherichia coli, 3 h, planktonic E. coli, positive cutoff 3-fold increase, read-out: AK-based Prestwick library screening result, E. coli (fold increase in extracellular AK activity)): 1.2; fold induction at 50 µM (E. cloacae; Enterobacter cloacae, 3 h, planktonic E. cloacae, positive cutoff 3-fold increase, read-out: AK-based Prestwick library screening result, E. cloacae (fold increase in extracellular AK activity)): 1.8; fold induction at 50 µM (P. aeruginosa; Pseudomonas aeruginosa, 3 h, planktonic P. aeruginosa, positive cutoff 3-fold increase, read-out: AK-based Prestwick library screening result, P. aeruginosa (fold increase in extracellular AK activity)): 1.1; fold induction at 50 µM ([1]; Acinetobacter baumannii, 983709, 3 h, planktonic A. baumannii, positive cutoff 3-fold increase, read-out: AK-based Prestwick library screening result, A. baumannii (fold increase in extracellular AK activity)): 1.4; fold induction at 50 µM ([2]; Staphylococcus aureus, USA300, 3 h, planktonic S. aureus, positive cutoff 3-fold increase, read-out: AK-based Prestwick library screening result, S. aureus (fold increase in extracellular AK activity)): 1.2; fold induction at 50 µM (E. faecium; Enterococcus faecium, 3 h, planktonic E. faecium, positive cutoff 3-fold increase, read-out: AK-based Prestwick library screening result, E. faecium (fold increase in extracellular AK activity)): 1.1
Ketanserin tartrate hydrate |  |  | AK-based Prestwick Library Screening Results, K. pneumoniae (fold increase in extracellular AK activity) (K. pneumoniae; [4]): 1.0; AK-based Prestwick Library Screening Results, E. coli (fold increase in extracellular AK activity) (E. coli; [4]): 1.3; AK-based Prestwick Library Screening Results, E. cloacae (fold increase in extracellular AK activity) (E. cloacae; [4]): 1.4; AK-based Prestwick Library Screening Results, P. aeruginosa (fold increase in extracellular AK activity) (P. aeruginosa; [4]): 1.0; AK-based Prestwick Library Screening Results, A. baumannii (fold increase in extracellular AK activity) [1, 4]: 1.2; AK-based Prestwick Library Screening Results, S. aureus (fold increase in extracellular AK activity) [2, 4]: 1.0; AK-based Prestwick Library Screening Results, E. faecium (fold increase in extracellular AK activity) (E. faecium; [4]): 1.0
